In patent US10351575B2, “Bicyclic urea, thiourea, guanidine and cyanoguanidine compounds useful for the treatment of pain” (Array BioPharma Inc., priority 2012, dated 2019):

Legend:
Assay in all cases: KinaseProfiler off-target kinase profiling
Format in all cases: biochemical
Details in all cases: 10 μM, ATP near Km
FGFR1 = FGFR1 (Homo sapiens (Human), UniProt P11362)
Experimental: (§1) Representative compounds (Examples 12, 32, 26 and 2) of the invention were tested for off-target kinase activity at a concentration of 10 μM by Millipore, Inc. in their KinaseProfiler™ service against all the kinases available in their full kinase panel. Compounds were run in duplicate at a concentration of ATP near the Km for each individual kinase according to Millipore's specifications. The results are shown in Table B. Data are reported as percent of control (POC) and are the average of the two replicates.

EphA3 = EphA3 (Homo sapiens (Human), UniProt P29320)
Experimental: as §1

MST3 = MST3 (Homo sapiens (Human), UniProt Q9Y6E0)
Experimental: as §1

Rsk2 = Rsk2 (Homo sapiens (Human), UniProt P51812)
Rsk2, sequence (P51812 whole entry): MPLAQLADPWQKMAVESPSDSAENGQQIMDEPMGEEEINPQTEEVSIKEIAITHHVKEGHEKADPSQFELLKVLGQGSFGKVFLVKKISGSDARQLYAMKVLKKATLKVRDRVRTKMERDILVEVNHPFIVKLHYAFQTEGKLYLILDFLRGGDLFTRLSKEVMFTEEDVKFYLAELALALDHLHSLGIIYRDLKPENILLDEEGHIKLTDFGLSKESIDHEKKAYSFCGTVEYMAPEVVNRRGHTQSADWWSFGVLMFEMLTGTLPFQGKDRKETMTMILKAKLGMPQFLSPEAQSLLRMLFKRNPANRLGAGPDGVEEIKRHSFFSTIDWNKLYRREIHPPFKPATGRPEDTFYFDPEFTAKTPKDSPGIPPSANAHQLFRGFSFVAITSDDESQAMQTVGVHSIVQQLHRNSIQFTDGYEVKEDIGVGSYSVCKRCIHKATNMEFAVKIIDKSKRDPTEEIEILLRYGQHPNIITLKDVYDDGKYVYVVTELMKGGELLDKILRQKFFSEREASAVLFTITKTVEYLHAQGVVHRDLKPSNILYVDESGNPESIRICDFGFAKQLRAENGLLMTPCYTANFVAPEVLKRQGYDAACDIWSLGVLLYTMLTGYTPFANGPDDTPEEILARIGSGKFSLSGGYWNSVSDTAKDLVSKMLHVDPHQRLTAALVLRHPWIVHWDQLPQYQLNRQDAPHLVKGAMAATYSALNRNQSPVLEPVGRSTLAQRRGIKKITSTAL
Experimental: as §1

p38gamma = p38gamma (Homo sapiens (Human), UniProt P53778)
Experimental: as §1

TNK2 = TNK2 (Homo sapiens (Human), UniProt Q07912)
Experimental: as §1

p38alpha = p38alpha (Homo sapiens (Human), UniProt Q16539)
Experimental: as §1

CDK1/cyclinB = CDK1/cyclinB (Homo sapiens (Human), UniProt P06493)
CDK1/cyclinB, sequence (P06493 whole entry): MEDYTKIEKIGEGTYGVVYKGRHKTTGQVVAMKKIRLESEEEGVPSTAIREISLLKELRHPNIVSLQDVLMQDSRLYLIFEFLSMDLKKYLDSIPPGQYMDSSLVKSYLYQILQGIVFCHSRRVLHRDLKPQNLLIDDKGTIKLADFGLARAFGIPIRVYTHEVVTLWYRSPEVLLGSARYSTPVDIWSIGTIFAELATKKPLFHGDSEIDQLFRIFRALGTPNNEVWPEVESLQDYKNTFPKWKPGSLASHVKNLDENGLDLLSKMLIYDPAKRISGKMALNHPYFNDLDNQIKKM
CDK1/cyclinB, sequence (P14635 whole entry partner): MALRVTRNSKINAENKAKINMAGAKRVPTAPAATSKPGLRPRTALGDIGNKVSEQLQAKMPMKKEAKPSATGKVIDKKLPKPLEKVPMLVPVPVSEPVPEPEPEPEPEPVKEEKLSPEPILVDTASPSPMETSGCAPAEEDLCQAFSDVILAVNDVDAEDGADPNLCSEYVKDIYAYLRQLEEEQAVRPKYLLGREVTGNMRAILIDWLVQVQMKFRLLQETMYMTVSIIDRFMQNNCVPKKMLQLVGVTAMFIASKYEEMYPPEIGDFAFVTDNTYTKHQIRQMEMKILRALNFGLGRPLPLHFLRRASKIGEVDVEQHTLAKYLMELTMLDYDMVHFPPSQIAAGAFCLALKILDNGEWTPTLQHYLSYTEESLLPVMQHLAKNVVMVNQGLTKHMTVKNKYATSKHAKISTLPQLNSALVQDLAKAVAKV
Experimental: as §1

CAMK2g = CAMK2g (Homo sapiens (Human), UniProt Q13555)
CAMK2g, sequence (Q13555 whole entry): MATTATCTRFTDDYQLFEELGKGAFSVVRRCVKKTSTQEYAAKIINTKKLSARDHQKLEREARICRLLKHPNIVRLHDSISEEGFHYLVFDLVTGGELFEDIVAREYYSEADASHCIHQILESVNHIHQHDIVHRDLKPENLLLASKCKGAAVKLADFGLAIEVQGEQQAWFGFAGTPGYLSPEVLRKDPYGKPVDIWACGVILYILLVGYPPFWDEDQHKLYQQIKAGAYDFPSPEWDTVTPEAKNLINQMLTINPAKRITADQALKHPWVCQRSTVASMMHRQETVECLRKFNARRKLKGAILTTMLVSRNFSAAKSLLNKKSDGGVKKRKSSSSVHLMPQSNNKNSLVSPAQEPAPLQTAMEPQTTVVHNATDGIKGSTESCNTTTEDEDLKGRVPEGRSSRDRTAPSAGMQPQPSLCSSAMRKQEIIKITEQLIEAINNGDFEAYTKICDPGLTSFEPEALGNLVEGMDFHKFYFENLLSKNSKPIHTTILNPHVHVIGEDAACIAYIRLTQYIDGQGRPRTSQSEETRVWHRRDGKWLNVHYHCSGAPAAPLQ
Experimental: as §1

BrSK2 = BrSK2 (Homo sapiens (Human), UniProt Q8IWQ3)
BrSK2, sequence (Q8IWQ3 whole entry): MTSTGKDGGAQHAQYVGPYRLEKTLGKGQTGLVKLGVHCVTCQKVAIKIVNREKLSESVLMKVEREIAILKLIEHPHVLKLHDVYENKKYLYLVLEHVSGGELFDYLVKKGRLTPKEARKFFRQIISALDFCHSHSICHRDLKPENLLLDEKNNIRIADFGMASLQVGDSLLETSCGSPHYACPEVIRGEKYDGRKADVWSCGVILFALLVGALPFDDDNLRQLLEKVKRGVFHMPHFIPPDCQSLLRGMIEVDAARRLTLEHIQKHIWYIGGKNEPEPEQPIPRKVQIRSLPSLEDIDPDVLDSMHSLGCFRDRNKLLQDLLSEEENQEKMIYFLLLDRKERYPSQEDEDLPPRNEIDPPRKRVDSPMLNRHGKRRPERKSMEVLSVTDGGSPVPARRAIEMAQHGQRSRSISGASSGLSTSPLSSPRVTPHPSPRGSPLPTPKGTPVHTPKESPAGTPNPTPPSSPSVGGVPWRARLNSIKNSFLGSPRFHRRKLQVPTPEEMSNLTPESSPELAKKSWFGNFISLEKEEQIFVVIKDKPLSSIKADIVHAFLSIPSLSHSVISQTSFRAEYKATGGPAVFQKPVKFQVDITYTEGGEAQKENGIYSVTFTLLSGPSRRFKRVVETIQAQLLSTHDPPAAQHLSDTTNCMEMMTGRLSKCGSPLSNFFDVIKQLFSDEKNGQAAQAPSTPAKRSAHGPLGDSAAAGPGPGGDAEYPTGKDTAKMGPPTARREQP
Experimental: as §1

NEK7 = NEK7 (Homo sapiens (Human), UniProt Q8TDX7)
Experimental: as §1

Plk3 = Plk3 (Homo sapiens (Human), UniProt Q9H4B4)
Experimental: as §1

TSSK1 = TSSK1 (Homo sapiens (Human), UniProt Q9BXA7)
TSSK1, sequence (Q9BXA7 whole entry): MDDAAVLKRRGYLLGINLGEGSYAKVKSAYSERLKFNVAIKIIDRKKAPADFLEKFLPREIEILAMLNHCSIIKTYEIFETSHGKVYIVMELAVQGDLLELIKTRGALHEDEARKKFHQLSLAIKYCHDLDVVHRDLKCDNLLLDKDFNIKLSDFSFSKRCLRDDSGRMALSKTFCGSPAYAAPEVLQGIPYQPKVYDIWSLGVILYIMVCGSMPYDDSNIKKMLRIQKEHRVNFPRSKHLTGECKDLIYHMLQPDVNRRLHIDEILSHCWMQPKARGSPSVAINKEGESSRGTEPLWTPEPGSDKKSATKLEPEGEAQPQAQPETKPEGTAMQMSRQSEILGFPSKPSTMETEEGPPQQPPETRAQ
Experimental: as §1

NEK6 = NEK6 (Homo sapiens (Human), UniProt Q9HC98)
Experimental: as §1

Flt1 = Flt1 (Homo sapiens (Human), UniProt P17948)
Experimental: as §1

PRKG1alpha = PRKG1alpha (Homo sapiens (Human), UniProt Q13976)
Experimental: as §1

JNK3 = JNK3 (Homo sapiens (Human), UniProt P53779)
Experimental: as §1

PAK5 = PAK5 (Homo sapiens (Human), UniProt Q9P286)
Experimental: as §1

PKD2 = PKD2 (Homo sapiens (Human), UniProt Q9BZL6)
PKD2, sequence (Q9BZL6 whole entry): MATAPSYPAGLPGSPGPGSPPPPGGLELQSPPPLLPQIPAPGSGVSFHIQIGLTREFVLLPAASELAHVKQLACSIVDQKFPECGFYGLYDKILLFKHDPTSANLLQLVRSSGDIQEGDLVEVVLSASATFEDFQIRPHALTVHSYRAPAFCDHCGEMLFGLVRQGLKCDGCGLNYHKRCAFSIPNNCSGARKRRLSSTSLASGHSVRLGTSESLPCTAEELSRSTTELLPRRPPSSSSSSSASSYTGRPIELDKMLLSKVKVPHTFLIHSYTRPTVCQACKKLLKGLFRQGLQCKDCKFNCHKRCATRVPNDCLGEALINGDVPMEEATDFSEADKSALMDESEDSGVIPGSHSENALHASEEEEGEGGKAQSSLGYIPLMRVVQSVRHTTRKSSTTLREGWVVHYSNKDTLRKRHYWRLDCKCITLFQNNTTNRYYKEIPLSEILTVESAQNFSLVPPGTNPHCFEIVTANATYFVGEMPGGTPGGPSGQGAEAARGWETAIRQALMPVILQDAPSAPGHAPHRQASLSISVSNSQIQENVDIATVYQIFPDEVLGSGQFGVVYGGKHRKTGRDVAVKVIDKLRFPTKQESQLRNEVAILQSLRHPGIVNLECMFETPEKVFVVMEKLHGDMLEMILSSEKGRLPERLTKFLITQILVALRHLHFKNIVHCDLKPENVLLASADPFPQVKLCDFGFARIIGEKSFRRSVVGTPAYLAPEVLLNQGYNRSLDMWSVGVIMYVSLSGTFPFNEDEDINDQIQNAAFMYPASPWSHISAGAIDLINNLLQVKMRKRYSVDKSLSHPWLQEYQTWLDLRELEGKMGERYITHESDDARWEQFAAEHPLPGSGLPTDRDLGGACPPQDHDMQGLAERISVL
Experimental: as §1

IR = IR (Homo sapiens (Human), UniProt P06213)
Experimental: as §1

ERK1 = ERK1 (Homo sapiens (Human), UniProt P27361)
ERK1, sequence (P27361 whole entry): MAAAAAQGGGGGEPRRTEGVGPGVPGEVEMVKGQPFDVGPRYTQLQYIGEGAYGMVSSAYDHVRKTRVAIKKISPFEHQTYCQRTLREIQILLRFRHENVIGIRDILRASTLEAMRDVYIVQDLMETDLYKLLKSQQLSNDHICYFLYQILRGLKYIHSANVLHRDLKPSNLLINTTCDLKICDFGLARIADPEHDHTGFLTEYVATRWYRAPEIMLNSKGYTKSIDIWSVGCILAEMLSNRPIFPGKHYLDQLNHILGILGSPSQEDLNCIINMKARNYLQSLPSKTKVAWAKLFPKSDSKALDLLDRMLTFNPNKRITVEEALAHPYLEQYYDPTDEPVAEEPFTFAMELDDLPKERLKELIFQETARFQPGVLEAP
Experimental: as §1

PRKG1beta = PRKG1beta (Homo sapiens (Human), UniProt Q13976)
Experimental: as §1

eEF-2K = eEF-2K (Homo sapiens (Human), UniProt O00418)
Experimental: as §1

PAK2 = PAK2 (Homo sapiens (Human), UniProt Q13177)
Experimental: as §1

PAK4 = PAK4 (Homo sapiens (Human), UniProt O96013)
Experimental: as §1

HIPK1 = HIPK1 (Homo sapiens (Human), UniProt Q86Z02)
Experimental: as §1

EphA4 = EphA4 (Homo sapiens (Human), UniProt P54764)
Experimental: as §1

PKCdelta = PKCdelta (Homo sapiens (Human), UniProt Q05655)
Experimental: as §1

GSK3beta = GSK3beta (Homo sapiens (Human), UniProt P49841)
Experimental: as §1

CDK7/cyclinH/MAT1 = CDK7/cyclinH/MAT1 (Homo sapiens (Human), UniProt P50613)
Experimental: as §1

HIPK3 = HIPK3 (Homo sapiens (Human), UniProt Q9H422)
Experimental: as §1

Ros = Ros (Homo sapiens (Human), UniProt P08922)
Experimental: as §1

Fms = Fms (Homo sapiens (Human), UniProt P07333)
Experimental: as §1

CK2alpha2 = CK2alpha2 (Homo sapiens (Human), UniProt P19784)
Experimental: as §1

IRAK4 = IRAK4 (Homo sapiens (Human), UniProt Q9NWZ3)
IRAK4, sequence (Q9NWZ3 whole entry): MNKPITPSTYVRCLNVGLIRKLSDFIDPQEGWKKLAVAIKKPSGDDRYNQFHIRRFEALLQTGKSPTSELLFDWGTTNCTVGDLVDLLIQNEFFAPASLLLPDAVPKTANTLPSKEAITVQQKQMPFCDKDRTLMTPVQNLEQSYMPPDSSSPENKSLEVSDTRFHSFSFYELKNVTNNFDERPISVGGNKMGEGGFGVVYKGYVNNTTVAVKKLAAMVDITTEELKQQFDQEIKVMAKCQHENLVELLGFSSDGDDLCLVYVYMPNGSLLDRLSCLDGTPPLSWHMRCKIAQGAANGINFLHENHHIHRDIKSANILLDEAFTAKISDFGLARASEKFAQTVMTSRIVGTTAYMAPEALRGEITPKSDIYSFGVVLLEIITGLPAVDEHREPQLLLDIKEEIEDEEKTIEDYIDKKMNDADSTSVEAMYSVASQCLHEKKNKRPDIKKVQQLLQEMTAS
Experimental: as §1

PDGFRbeta = PDGFRbeta (Homo sapiens (Human), UniProt P09619)
Experimental: as §1

CK1gamma3 = CK1gamma3 (Homo sapiens (Human), UniProt Q9Y6M4)
Experimental: as §1

MSK1 = MSK1 (Homo sapiens (Human), UniProt O75582)
Experimental: as §1

DYRK2 = DYRK2 (Homo sapiens (Human), UniProt Q92630)
Experimental: as §1

Row | Avg. POC (FGFR1) | Avg. POC (EphA3) | Avg. POC (MST3) | Avg. POC (Rsk2) | Avg. POC (p38gamma) | Avg. POC (TNK2) | Avg. POC (p38alpha) | Avg. POC (CDK1/cyclinB) | Avg. POC (CAMK2g) | Avg. POC (BrSK2) | Avg. POC (NEK7) | Avg. POC (Plk3) | Avg. POC (TSSK1) | Avg. POC (NEK6) | Avg. POC (Flt1) | Avg. POC (PRKG1alpha) | Avg. POC (JNK3) | Avg. POC (PAK5) | Avg. POC (PKD2) | Avg. POC (IR) | further results | SMILES
1 | 104.5 POC | 122 POC | 130.5 POC | 92.5 POC | 116.5 POC | 132 POC | 96.5 POC | 104 POC | 105 POC | 128.5 POC | 122.5 POC | 103.5 POC | 88.5 POC | 123 POC | 103 POC | 84 POC | 104 POC | 111 POC | 110.5 POC | 109 POC | Avg. POC (ERK1): 107 POC; Avg. POC (PRKG1beta): 80.5 POC; Avg. POC (eEF-2K): 115 POC; Avg. POC (PAK2): 108.5 POC; Avg. POC (PAK4): 98 POC; Avg. POC (HIPK1): 115 POC; Avg. POC (EphA4): 103 POC; Avg. POC (PKCdelta): 99 POC; Avg. POC (GSK3beta): 84.5 POC; Avg. POC (CDK7/cyclinH/MAT1): 122.5 POC; Avg. POC (HIPK3): 107 POC; Avg. POC (Ros): 97.5 POC; Avg. POC (Fms): 102 POC; Avg. POC (CK2alpha2): 104 POC; Avg. POC (IRAK4): 99 POC; Avg. POC (PDGFRbeta): 131.5 POC; Avg. POC (CK1gamma3): 102 POC; Avg. POC (MSK1): 118 POC; Avg. POC (DYRK2): 97.5 POC | COCc1ccc2c(c1)C(NC(=O)Nc1c(C)c(-c3cnn(C)c3)nn1-c1ccccc1)COC2 (stereo not drawn) [Example 32, 1-(1′,4-dimethyl-1-phenyl-1H,1′H-[3,4′-bipyrazol]-5-yl)-3-(6-(methoxymethyl)isochroman-4-yl)urea]
2 | 104.5 POC | 128 POC | 108.5 POC | 105.5 POC | 118 POC | 123 POC | 104.5 POC | 103 POC | 101 POC | 118 POC | 126 POC | 119 POC | 71.5 POC | 123.5 POC | 104 POC | 98 POC | 116 POC | 121.5 POC | 102 POC | 82.5 POC | Avg. POC (ERK1): 109.5 POC; Avg. POC (PRKG1beta): 111.5 POC; Avg. POC (eEF-2K): 127.5 POC; Avg. POC (PAK2): 99.5 POC; Avg. POC (PAK4): 100.5 POC; Avg. POC (HIPK1): 111 POC; Avg. POC (EphA4): 110 POC; Avg. POC (PKCdelta): 105 POC; Avg. POC (GSK3beta): 124.5 POC; Avg. POC (CDK7/cyclinH/MAT1): 113.5 POC; Avg. POC (HIPK3): 111 POC; Avg. POC (Ros): 106.5 POC; Avg. POC (Fms): 96 POC; Avg. POC (CK2alpha2): 114 POC; Avg. POC (IRAK4): 102 POC; Avg. POC (PDGFRbeta): 122.5 POC; Avg. POC (CK1gamma3): 102.5 POC; Avg. POC (MSK1): 114 POC; Avg. POC (DYRK2): 103 POC | Cc1c(-c2ccc(=O)n(C)c2)nn(-c2ccccc2)c1NC(=O)NC1CN(CC(F)(F)F)Cc2ccccc21 (stereo not drawn) [Example 26, 1-(4-methyl-3-(1-methyl-6-oxo-1,6-dihydropyridin-3-yl)-1-phenyl-1H-pyrazol-5-yl)-3-(2-(2,2,2-trifluoroethyl)-1,2,3,4-tetrahydroisoquinolin-4-yl)urea]
3 | 114 POC | 123.5 POC | 120 POC | 137 POC | 115 POC | 100.5 POC | 102.5 POC | 122.5 POC | 107.5 POC | 139.5 POC | 94.5 POC | 103 POC | 106 POC | 125.5 POC | 105.5 POC | 127.5 POC | 117.5 POC | 109.5 POC | 102 POC | 44 POC | Avg. POC (ERK1): 120.5 POC; Avg. POC (PRKG1beta): 122 POC; Avg. POC (eEF-2K): 138 POC; Avg. POC (PAK2): 104 POC; Avg. POC (PAK4): 95 POC; Avg. POC (HIPK1): 97 POC; Avg. POC (EphA4): 111.5 POC; Avg. POC (PKCdelta): 95 POC; Avg. POC (GSK3beta): 126 POC; Avg. POC (CDK7/cyclinH/MAT1): 111 POC; Avg. POC (HIPK3): 119.5 POC; Avg. POC (Ros): 106.5 POC; Avg. POC (Fms): 82 POC; Avg. POC (CK2alpha2): 125 POC; Avg. POC (IRAK4): 125.5 POC; Avg. POC (PDGFRbeta): 149 POC; Avg. POC (CK1gamma3): 118 POC; Avg. POC (MSK1): 113.5 POC; Avg. POC (DYRK2): 98 POC | Cc1c(-c2cnn(C)c2)nn(-c2ccccc2)c1NC(=O)N[C@H]1CCCc2ccccc21 [Example 2, (S)-1-(1′,4-dimethyl-1-phenyl-1H,1′H-3,4′-bipyrazol-5-yl)-3-(1,2,3,4-tetrahydronaphthalen-1-yl)urea]
4 | 90 POC | 114.5 POC | 131.5 POC | 103 POC | 111 POC | 117.5 POC | 110 POC | 107.5 POC | 107.5 POC | 147 POC | 133.5 POC | 115 POC | 79 POC | 121 POC | 93 POC | 89.5 POC | 107.5 POC | 143 POC | 94 POC | 92 POC | Avg. POC (ERK1): 105 POC; Avg. POC (PRKG1beta): 95.5 POC; Avg. POC (eEF-2K): 140 POC; Avg. POC (PAK2): 97 POC; Avg. POC (PAK4): 103 POC; Avg. POC (HIPK1): 102.5 POC; Avg. POC (EphA4): 114.5 POC; Avg. POC (PKCdelta): 97.5 POC; Avg. POC (GSK3beta): 109.5 POC; Avg. POC (CDK7/cyclinH/MAT1): 101 POC; Avg. POC (HIPK3): 102.5 POC; Avg. POC (Ros): 97.5 POC; Avg. POC (Fms): 91 POC; Avg. POC (CK2alpha2): 107.5 POC; Avg. POC (IRAK4): 95.5 POC; Avg. POC (PDGFRbeta): 125.5 POC; Avg. POC (CK1gamma3): 104.5 POC; Avg. POC (MSK1): 127.5 POC; Avg. POC (DYRK2): 97.5 POC | Cc1c(-c2cnn(C)c2)nn(-c2ccccc2)c1NC(=O)NC1CCOc2cc(F)ccc21 (stereo not drawn) [Example 12, 1-(1′,4-dimethyl-1-phenyl-1H,1′H-[3,4′-bipyrazol]-5-yl)-3-(7-fluorochroman-4-yl)urea]
